Numbers after ± are expanded uncertainties.
Test: cn = amount concentration of the nth substance listed, in mol/dm3
Details: 298.15 K, 101 kPa, Liquid, c1 = 0.1; for speed of sound: Sing-around technique in a fixed-path interferometer; for mass density: Vibrating tube method

speed of sound [m/s]	mass density [kg/m3]	Compound
1502 ± 1.2	998.575 ± 0.11	CCCCCCCCCCCC[N+](C)(C)C.[Br-] [dodecyltrimethylammonium bromide] + O
1499.5 ± 1.2	998.003 ± 0.11	CCCCCCCCCCCCCC[N+](C)(C)C.[Br-] [tetradecyltrimethylammonium bromide] + O
